Source: patent US12012403B2, “Aryl sulfonyl compounds as CCR6 inhibitors” (CHEMOCENTRYX, INC., priority 2021, dated 2024)

Molecular target: T1, human CCR6 (Homo sapiens, UniProt P51684)
T1 construct: expressed in transfected cells; host or cells: Ba/F3 cells (murine pro-B line), hCCR6-transfected, CMV promoter, sodium butyrate induction
T1 sequence (P51684 1-374): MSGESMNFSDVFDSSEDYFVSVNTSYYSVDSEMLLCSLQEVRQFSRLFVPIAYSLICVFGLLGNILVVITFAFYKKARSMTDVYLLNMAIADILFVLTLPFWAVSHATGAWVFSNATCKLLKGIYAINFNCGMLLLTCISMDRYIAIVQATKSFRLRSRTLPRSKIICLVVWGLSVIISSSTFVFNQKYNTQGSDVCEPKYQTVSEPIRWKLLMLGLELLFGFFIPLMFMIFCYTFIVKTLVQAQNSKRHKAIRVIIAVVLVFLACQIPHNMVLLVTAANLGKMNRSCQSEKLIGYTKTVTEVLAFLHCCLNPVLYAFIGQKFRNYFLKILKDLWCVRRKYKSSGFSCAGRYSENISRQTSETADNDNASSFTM
Experiment: Migration (chemotaxis) assay, hCCR6-transfected Ba/F3 cells toward CCL20
Type: cell-based
Conditions: hCCR6-transfected Ba/F3 cells in human serum; recombinant human CCL20 10 nM; 37° C. 45 minutes; read-out: Potency (IC50 value in the migration assay)
Summary of the method: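 Ba/F3 cells stably transfected with human CCR6 (CMV promoter), pre-induced 24 hr with sodium butyrate, suspended at 4 million/ml in human serum with test compound serially diluted from 10 μM final. Migration through 5-μm polycarbonate membrane toward 10 nM CCL20 (EC50) for 45 min at 37 °C; migrated cells quantified by CyQUANT fluorescence.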

IC50	SMILES
5 to 100 nM	CS(=O)(=O)N1CCCC(c2ccc(S(=O)(=O)N3CCC(Nc4ccc(C(F)(F)F)cn4)CC3)cc2)C1 (stereo not drawn) [Example 1.179]
< 5 nM	O=C1NCCC12CCN(c1ccc(S(=O)(=O)N3CCC(Nc4ccc(C(F)(F)F)cn4)CC3)cc1)CC2 [Example 1.172]
100 to 10000 nM	CN(C)C(=O)CC1CCN(c2ccc(S(=O)(=O)N3CCC(Nc4ccc(C(F)(F)F)cn4)CC3)cc2)CC1 [Example 1.134]
5 to 100 nM	O=S(=O)(c1ccc(C2=CCOCC2)cc1)N1CCC(Nc2ccc(C(F)(F)F)cn2)CC1 [Example 1.236]
5 to 100 nM	NC(=O)N1CCCC(c2ccc(S(=O)(=O)N3CCC(Nc4ccc(C(F)(F)F)cn4)CC3)cc2)C1 (stereo not drawn) [Example 1.215]
100 to 10000 nM	CC(C)(C)OC(=O)N[C@H]1CCN(c2ccc(S(=O)(=O)N3CCC(Nc4ccc(C(F)(F)F)cn4)CC3)cc2)C1 [Example 1.218]
5 to 100 nM	CC(C)(C)OC(=O)NC1CCN(c2ccc(S(=O)(=O)N3CCC(Nc4ccc(C(F)(F)F)cn4)CC3)cc2)CC1 [Example 1.217]
100 to 10000 nM	O=S(=O)(c1ccc(N2CCn3ccnc3C2)cc1)N1CCC(Nc2ccc(C(F)(F)F)cn2)CC1 [Example 1.229]
5 to 100 nM	O=S(=O)(c1ccc(N2CCC(O)(CO)CC2)cc1)N1CCC(Nc2ccc(C(F)(F)F)cn2)CC1 [Example 1.168]
5 to 100 nM	O=S(=O)(c1ccc(N2CC[C@H](O)[C@@H](CO)C2)cc1)N1CCC(Nc2ccc(C(F)(F)F)cn2)CC1 [Example 1.181]
5 to 100 nM	O=S(=O)(c1ccc(N2CCC[C@@H](O)C2)cc1)N1CCC(Nc2ccc(C(F)(F)F)cn2)CC1 [Example 1.185]

SMILES	IC50
O=C1Nc2ccc(-c3ccc(S(=O)(=O)N4CCC(Nc5ccc(C(F)(F)F)cn5)CC4)cc3)cc2C12CCNCC2 [Example 1.028]	5 to 100 nM
